Tests used:
Cholinesterase = Cholinesterase (Homo sapiens, UniProt P06276); experiment: Inhibition of BChE
Acetylcholinesterase = Acetylcholinesterase (Homo sapiens, UniProt P22303); experiment: Inhibition of AChE
Acetylcholinesterase, sequence (P22303 whole entry): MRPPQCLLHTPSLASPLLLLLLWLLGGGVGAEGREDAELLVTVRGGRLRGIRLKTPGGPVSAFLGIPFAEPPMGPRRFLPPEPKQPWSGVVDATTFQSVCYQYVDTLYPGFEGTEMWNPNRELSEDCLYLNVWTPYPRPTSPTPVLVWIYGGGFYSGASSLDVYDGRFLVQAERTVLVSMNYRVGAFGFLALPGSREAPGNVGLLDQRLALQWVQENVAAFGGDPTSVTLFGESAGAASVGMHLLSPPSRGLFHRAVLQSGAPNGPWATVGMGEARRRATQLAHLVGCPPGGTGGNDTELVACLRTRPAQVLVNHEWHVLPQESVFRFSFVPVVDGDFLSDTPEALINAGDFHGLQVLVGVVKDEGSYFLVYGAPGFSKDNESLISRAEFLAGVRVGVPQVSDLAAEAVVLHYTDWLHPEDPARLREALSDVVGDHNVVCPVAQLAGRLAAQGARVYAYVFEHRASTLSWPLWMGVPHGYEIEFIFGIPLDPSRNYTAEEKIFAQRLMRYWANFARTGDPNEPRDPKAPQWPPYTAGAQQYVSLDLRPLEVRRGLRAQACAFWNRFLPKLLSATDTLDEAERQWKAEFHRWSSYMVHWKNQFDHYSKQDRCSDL

Cholinesterase, sequence (P06276 whole entry): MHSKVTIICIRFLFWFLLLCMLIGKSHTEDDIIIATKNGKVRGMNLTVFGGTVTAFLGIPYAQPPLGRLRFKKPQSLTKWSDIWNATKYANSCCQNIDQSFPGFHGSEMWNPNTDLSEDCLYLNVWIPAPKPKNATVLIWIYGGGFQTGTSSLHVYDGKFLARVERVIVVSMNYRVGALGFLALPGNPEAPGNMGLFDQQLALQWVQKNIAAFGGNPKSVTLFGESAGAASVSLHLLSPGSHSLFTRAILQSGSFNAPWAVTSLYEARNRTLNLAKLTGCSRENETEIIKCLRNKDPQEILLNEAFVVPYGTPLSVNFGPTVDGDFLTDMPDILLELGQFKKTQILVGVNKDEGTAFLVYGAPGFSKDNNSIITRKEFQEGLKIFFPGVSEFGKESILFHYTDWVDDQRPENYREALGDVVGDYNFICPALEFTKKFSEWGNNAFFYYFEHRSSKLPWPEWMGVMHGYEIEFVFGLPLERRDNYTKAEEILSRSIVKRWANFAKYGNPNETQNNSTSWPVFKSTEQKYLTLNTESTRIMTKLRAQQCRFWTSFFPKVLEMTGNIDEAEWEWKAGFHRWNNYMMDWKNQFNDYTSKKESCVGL

Cc1nccc2c3cc(O)ccc3n(C)c12
IC50 (Cholinesterase; read-out: IC50): > 10 µM
IC50 (Acetylcholinesterase; read-out: IC50): > 10 µM

C[n+]1ccc2c(c1)[nH]c1ccc(O)cc12
IC50 (Cholinesterase; read-out: IC50): 8.7 µM
IC50 (Acetylcholinesterase; read-out: IC50): 4.2 µM

COc1ccc2c(c1)c1cc[n+](C)c(C)c1n2C
IC50 (Cholinesterase; read-out: IC50): > 10 µM
IC50 (Acetylcholinesterase; read-out: IC50): > 10 µM

COc1ccc2c(c1)c1ccncc1n2C
IC50 (Cholinesterase; read-out: IC50): > 10 µM
IC50 (Acetylcholinesterase; read-out: IC50): > 10 µM

COc1ccc2[nH]c3c(c2c1)CCNC3
IC50 (Cholinesterase; read-out: IC50): > 10 µM
IC50 (Acetylcholinesterase; read-out: IC50): > 10 µM

COc1ccc2[nH]c3c(C)nccc3c2c1
IC50 (Cholinesterase; read-out: IC50): > 10 µM
IC50 (Acetylcholinesterase; read-out: IC50): > 10 µM

Cn1c2ccc(O)cc2c2cc[n+](C)cc21
IC50 (Cholinesterase; read-out: IC50): 32.2 µM
IC50 (Acetylcholinesterase; read-out: IC50): 1.8 µM

Cn1c2ccc(O)cc2c2ccncc21
IC50 (Cholinesterase; read-out: IC50): > 10 µM
IC50 (Acetylcholinesterase; read-out: IC50): > 10 µM

COc1ccc2[nH]c3c(C)[n+](C)ccc3c2c1
IC50 (Cholinesterase; read-out: IC50): 1.2 µM
IC50 (Cholinesterase; read-out: Log IC50 (converted)): 1.1 µM
IC50 (Acetylcholinesterase; read-out: IC50): 0.8 µM

COc1ccc2c(c1)c1ccnc(C)c1n2C
IC50 (Cholinesterase; read-out: IC50): 17.4 µM
IC50 (Acetylcholinesterase; read-out: IC50): 11.8 µM

Cc1c2[nH]c3ccc(O)cc3c2cc[n+]1C
IC50 (Cholinesterase; read-out: IC50): 1.6 µM
IC50 (Acetylcholinesterase; read-out: IC50): 1 µM

Oc1ccc2[nH]c3cnccc3c2c1
IC50 (Cholinesterase; read-out: IC50): > 10 µM
IC50 (Acetylcholinesterase; read-out: IC50): > 10 µM

Cc1nccc2c1[nH]c1ccc(O)cc12
IC50 (Cholinesterase; read-out: IC50): > 10 µM
IC50 (Acetylcholinesterase; read-out: IC50): > 10 µM

COc1ccc2[nH]c3c[n+](C)ccc3c2c1
IC50 (Cholinesterase; read-out: IC50): 17.5 µM
IC50 (Acetylcholinesterase; read-out: IC50): 2.2 µM

COc1ccc2c(c1)c1cc[n+](C)cc1n2C
IC50 (Cholinesterase; read-out: IC50): 20.9 µM
IC50 (Acetylcholinesterase; read-out: IC50): 1.3 µM
IC50 (Acetylcholinesterase; read-out: Log IC50 (converted)): 1.4 µM

Cc1c2c(cc[n+]1C)c1cc(O)ccc1n2C
IC50 (Cholinesterase; read-out: IC50): 2.7 µM
IC50 (Acetylcholinesterase; read-out: IC50): 1.9 µM

COc1ccc2[nH]c3cnccc3c2c1
IC50 (Cholinesterase; read-out: IC50): > 10 µM
IC50 (Acetylcholinesterase; read-out: IC50): > 10 µM

COc1ccc2[nH]c3c(c2c1)CCNC3C (stereo not drawn) [ADRENOGLOMERULOTROPIN]
IC50 (Cholinesterase; read-out: IC50): > 10 µM
IC50 (Acetylcholinesterase; read-out: IC50): > 10 µM

— ChEMBL document CHEMBL1139709, “6-Hydroxy- and 6-methoxy-beta-carbolines as acetyl- and butyrylcholinesterase inhibitors” (Bioorg Med Chem Lett, 2006)
